From the METLIN SMRT retention time set (Domingo-Almenara et al. 2019)

Test: gradient 5% acetonitrile 3 min, to 50% in 2 min, to 85% in 15 min, held 3 min, 100 µL/min
Details: column: Zorbax Extend-C18 2.1 x 50 mm; eluents: water / acetonitrile, 0.1% formic acid
Procedure, shortened: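 Retention times of pure standards were taken from adduct peaks that were selected by computer and manually inspected. Over 3 months, mixtures of ~100 molecules were run by HPLC–quadrupole time-of-flight mass spectrometry in positive and negative ionization mode. The Zorbax Extend-C18 column (2.1 × 50 mm, 1.8 μm) ran at 100 μL/min in water and acetonitrile, each containing 0.1% formic acid, with 40 μL dead volume and 900 μL dwell volume.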

| RP-LC retention time [s] | SMILES |
| --- | --- |
| 1210 | Cc1nc2c(sc3nc(-c4ccccc4)ccc32)c(=O)n1CC(=O)Nc1cccc(C(C)C)c1 |
| 1120 | Cc1ccc(-c2csc3c(=O)n(CC(=O)N4CCOc5ccc(C)cc54)cnc23)cc1 |
| 921 | CCOc1ccc(C2Cn3nnc(-c4nc(-c5ccccn5)no4)c3CO2)cc1 (stereo not given) |
| 1310 | CCOc1ccc2cccc(NC(=O)c3cc(C)oc3C)c2n1 |
| 732 | COc1ccccc1CNC1=NCCNC12CCN(S(=O)(=O)c1ccccc1C)CC2 |
| 1060 | COc1ccc(-c2nnc(-c3cccnc3NCc3cccc(OC)c3OC)o2)cc1 |
| 1000 | Cc1ccccc1Nc1c(-c2cccc(Cl)c2)nc2cnccn12 |
| 971 | COC(=O)c1cc(C)nc2c1c(=O)n(Cc1nc(-c3ccccc3OC)oc1C)c(=O)n2C |
| 1010 | CCc1ccc(NC(=O)N2CCc3nc(-c4ccccc4)ncc3C2)cc1 |
| 1210 | Cc1ccc(C(=O)COc2cc(O)c3c(=O)cc(-c4ccccc4)oc3c2)cc1 |
| 616 | CCCN1C(=O)C(C)(C(=O)NCc2ccc(C)cc2)Oc2cccnc21 (stereo not given) |
| 871 | COc1ccccc1N1C=C(C#N)S(=O)(=O)c2ccccc21 |
| 867 | Cn1cc(-c2ccc3c(c2)CCN3C(=O)Cc2cccc(C(F)(F)F)c2)c2c(N)ncnc21 |
| 762 | OC(CNCc1ccc(-c2cc(Cl)ccc2Cl)o1)c1ccccc1 (stereo not given) |
| 1090 | Cc1onc(-c2ccccc2)c1C(=O)Nc1nc(-c2ccc(F)cc2)cs1 |
| 1240 | COc1ccc(-c2csc(Cc3nc(-c4ccc(C)cc4)no3)n2)cc1 |
| 694 | COc1ccc(-c2nc3cc(C)ccn3c2NC(=O)COc2ccccc2)cc1 |
| 904 | COC(=O)C1=CN(c2cc(OC)cc(OC)c2)c2cc(F)ccc2S1(=O)=O |
| 678 | COc1ccc(C(C)NC(=O)Cc2cn(C)c3ncccc23)cc1 (stereo not given) |
| 823 | COc1ccc(Cl)cc1NS(=O)(=O)c1cc(-c2c(C)noc2NC(C)=O)ccc1OC |
| 732 | COc1ccc(OC)c(NC(=O)C2CC(=O)N(c3n[nH]c4cccc(F)c34)C2)c1 (stereo not given) |
| 1090 | Clc1ccc(-c2nc(-c3cccc(-c4ccn[nH]4)c3)no2)cc1 |
| 597 | COc1ccccc1C(=O)Nc1c(-c2ccccc2)nc2ccccn12 |
| 674 | COc1ccc(-c2c(NC(=O)c3ccco3)n(-c3ccccc3)nc(C)c2=O)cc1 |
| 807 | Cc1ccc(Nc2c(-c3ccc(Cl)cc3)nc3cc(C)ccn23)cc1 |
| 848 | COc1ccc(CC(=O)NCCc2c[nH]c3ccc(Cl)cc23)cc1 |
| 924 | CCc1ccc(OCc2nc(CCN(C)C(=O)c3cccs3)no2)cc1 |

More lines, now with the values behind:

| SMILES | RP-LC retention time [s] |
| --- | --- |
| COc1ccccc1C(=O)N1CCCC1c1c(C)noc1C (stereo not given) | 693 |
| Cc1cc(C)n(Cc2ccc(C(=O)N3CCN(Cc4noc5ccccc45)CC3)o2)n1 | 672 |
| Cc1ccccc1Cn1c(CN2CCC(C(=O)N3CCCC3)CC2)cc2ccccc21 | 757 |
| CN(C)C(=O)c1cn(C2CN(C(=O)c3cccc(C#N)c3)C2)nn1 | 613 |
| CC(C)(C)c1ccc(CN2CCC(OC3CCN(C4CCCC4)C3=O)CC2)cc1 (stereo not given) | 758 |
| Cc1cnc(C2CC2)n1C1CCN(S(=O)(=O)c2ccc(C#N)cc2)C1 (stereo not given) | 647 |
| Cc1csc(-c2cc(S(=O)(=O)NC(C)(C)C)cn2CC(=O)N2CCCC2)n1 | 1160 |
| COCCc1noc(C2CN(C(=O)c3cnc(C)cn3)C2)n1 | 636 |
| Cc1ccc(N2N=NC3C(=O)N(c4cccc(Cl)c4)C(=O)C32)cc1F (stereo not given) | 1060 |
| O=C1COc2cc(S(=O)(=O)N3CCCC3C(=O)NC3CCCCCC3)c(Cl)cc2N1 (stereo not given) | 819 |
| CCC(C)NC(=O)C1CCCN(C(=O)c2cc(-c3ccccn3)n[nH]2)C1 (stereo not given) | 611 |
| Cc1noc(C2(NS(=O)(=O)c3ccc(C#N)cc3)CCCCC2)n1 | 773 |
| Cc1ccc(NS(=O)(=O)c2cc3c(s2)CCN(C(=O)C2CCC2)C3)c(C)c1 | 943 |
| O=C(CCC1CCCN(c2cc(NC3CC3)ncn2)C1)NCc1ccccn1 (stereo not given) | 558 |
| Cc1cccc(CN2CCCn3nc(C(=O)NC(C)Cc4ccco4)cc3C2=O)c1 (stereo not given) | 919 |
| O=C1CCCc2cc(S(=O)(=O)NCCc3ccc(Cl)cc3)ccc2N1 | 800 |
| Cc1cc(C(=O)NCCc2ccc(Cl)cc2)c2c(=O)n(C)c(=O)n(C)c2n1 | 835 |
| CCCNC(=O)C1CCCN(c2ccc(SCC(=O)Nc3cccc(Cl)c3)nn2)C1 (stereo not given) | 683 |
| CCC(=O)NCc1nc2c(n1C)CN(C(=O)c1ccc(Br)cc1)CC2 | 605 |

| SMILES | RP-LC retention time [s] |
| --- | --- |
| C=CCN1C(=O)C(C)(C)COc2cc(NS(=O)(=O)c3ccc(Cl)s3)ccc21 | 975 |
| CCCCC(=O)O[C@]1(C(=O)CO)CC[C@H]2[C@@H]3CCC4=CC(=O)CC[C@]4(C)[C@H]3[C@@H](O)C[C@@]21C | 1020 |
| COc1cc(OC)c(NC(=O)Cn2nc3n(c2=O)CCCCC3)cc1Cl | 722 |
| Cc1cc(C)cc(NC(=O)C2CCN(S(=O)(=O)c3cn(C)cn3)CC2)c1 | 732 |
| CCN1C(=O)COc2ccc(-c3csc(NC(=O)c4ccccc4F)n3)cc21 | 968 |
| O=C(NCCc1cccs1)C1CCN(S(=O)(=O)c2ccc(-c3noc(C4CC4)n3)cc2)CC1 | 946 |
| O=C(NC1CC1)[C@@H]1C[C@H](Oc2cccnc2)CN1C(=O)c1ccco1 | 538 |
| COc1ccc(S(=O)(=O)N2CCC(c3nc(C(=O)N4CCOCC4)c(C)o3)CC2)cc1 | 752 |
| COc1ccc(C2C(C(=O)c3cccs3)=C(O)C(=O)N2CCCN2CCOCC2)cc1OC (stereo not given) | 613 |
| O=C(C1CC1)N1CCc2sc(S(=O)(=O)NCc3ccccc3F)cc2C1 | 815 |
| CCN1CCCC1CNC(=O)c1nnc(-c2ccc(S(=O)(=O)N3CCC(C)CC3)cc2)o1 (stereo not given) | 703 |
| COC(=O)C(Cc1ccccc1)NC(=O)C(NC(=O)OCc1ccccc1)C(C)C (stereo not given) | 894 |
| CCS(=O)(=O)c1nc2ccc(NS(=O)(=O)CCc3ccccc3)cc2s1 | 918 |
| Cc1ccc(NC(=O)C2CCN(C(=O)C3Sc4ccccc4NC3=O)CC2)c(C)c1 (stereo not given) | 762 |
| COC1CCC12CCN(C(=O)c1cccs1)CC2 (stereo not given) | 748 |
| O=[N+]([O-])c1cn2c(n1)OC[C@@H](OCc1ccc(OC(F)(F)F)cc1)C2 | 916 |
| N#CC1=CN(c2cccc(Br)c2)c2ccccc2S1(=O)=O | 939 |
| O=C(c1nc2ccccc2s1)N1CCN(Cc2nc(-c3ccc(F)cc3)cs2)CC1 | 882 |
| Cc1c2c(nn1-c1ccc(SCc3ccc(F)cc3)nn1)CCC2 | 1280 |
